Experimental data as given in patent US7973061B2, “Anaplastic lymphoma kinase modulators and methods of use” (Exelixis, Inc., priority 2004, dated 2011).

Each compound was assayed against T1, ALK (baculovirus expressed human ALK kinase domain F1098-K1410) (Homo sapiens, UniProt Q9UM73) (assay: biochemical). Settings: 1 μM ATP, 4 μM poly-AEKY, 12 nM ALK, 2 hours at ambient temperature; read-out: ALK IC50.
T1 construct: human ALK kinase domain F1098-K1410; made in house
T1 sequence (Q9UM73 1098-1410): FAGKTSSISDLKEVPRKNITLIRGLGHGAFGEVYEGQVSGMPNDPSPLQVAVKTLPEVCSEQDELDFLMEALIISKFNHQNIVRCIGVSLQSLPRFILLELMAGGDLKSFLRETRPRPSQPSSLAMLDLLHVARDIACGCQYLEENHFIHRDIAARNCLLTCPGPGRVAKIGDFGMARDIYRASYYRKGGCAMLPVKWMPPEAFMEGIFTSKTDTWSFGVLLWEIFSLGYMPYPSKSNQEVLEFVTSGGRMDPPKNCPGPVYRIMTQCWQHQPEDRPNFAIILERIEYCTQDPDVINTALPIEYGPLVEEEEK
Outline: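 Inhibitors were tested at 10 concentrations, and IC50 was derived from a sigmoidal fit (Min, Max, Hill slope). Kinase activity was measured as percent ATP left after a 2 h reaction at room temperature, detected by luciferase-luciferin chemiluminescence. The ATP level was set close to KM for the ALK kinase domain F1098-K1410.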
O=C(NCc1nc(C(=O)NCCc2cccc(Cl)c2)cs1)OCc1ccc(OC(F)(F)F)cc1 [Entry 298, {4-[(trifluoromethyl)oxy]phenyl}methyl {[4-({[2-(3-chlorophenyl)ethyl]amino}carbonyl)-1,3-thiazol-2-yl]methyl}carbamate] gave an IC50 of 500 to 2000 nM. In the case of Cc1ccsc1CNC(=O)c1csc(CNC(=O)COc2ccc(OC(F)(F)F)cc2)n1 [Entry 133, N-[(3-methyl-2-thienyl)methyl]-2-({[({4-[(trifluoromethyl)oxy]phenyl}oxy)acetyl]amino}methyl)-1,3-thiazole-4-carboxamide], the IC50 is reported as 50 to 500 nM. For C[C@H](NC(=O)c1csc(CNC(=O)COc2ccc(OC(F)(F)F)cc2)n1)C1CCCCC1 [Entry 95, N-[(1S)-1-cyclohexylethyl]-2-({[({4-[(trifluoromethyl)oxy]phenyl}oxy)acetyl]amino}methyl)-1,3-thiazole-4-carboxamide], the IC50 was 50 to 500 nM. CCCCOc1ccc(NC(=O)NCc2nc(C(=O)NCc3ccccc3OC)cs2)cc1 [Entry 214, 2-{[({[4-(butyloxy)phenyl]amino}carbonyl)amino]methyl}-N-{[2-(methyloxy)phenyl]methyl}-1,3-thiazole-4-carboxamide] showed an IC50 of 50 to 500 nM. CC(CNC(=O)c1coc(CNC(=O)COc2ccc(OC(F)(F)F)cc2)n1)c1ccccc1 (stereo not drawn) [Entry 259, N-(2-phenylpropyl)-2-({[({4-[(trifluoromethyl)oxy]phenyl}oxy)acetyl]amino}methyl)-1,3-oxazole-4-carboxamide] was tested, and the IC50 was 500 to 2000 nM. O=C(COc1ccc(OC(F)(F)F)cc1)NCc1nc(C(=O)NCCc2cccnc2)cs1 [Entry 51, N-(2-pyridin-3-ylethyl)-2-({[({4-[(trifluoromethyl)oxy]phenyl}oxy)acetyl]amino}methyl)-1,3-thiazole-4-carboxamide] was tested, and the IC50 was 50 to 500 nM. O=C(COc1ccc(OC(F)(F)F)cc1)NCc1nc(C(=O)NCCc2ccccc2Cl)co1 [Entry 273, N-[2-(2-chlorophenyl)ethyl]-2-({[({4-[(trifluoromethyl)oxy]phenyl}oxy)acetyl]amino}methyl)-1,3-oxazole-4-carboxamide] was tested, and the IC50 was 500 to 2000 nM. O=C(CNC(=O)c1ccc([N+](=O)[O-])cc1)NCc1nc(C(=O)NCCc2cccc(Cl)c2)cs1 [Entry 136, N-[2-(3-chlorophenyl)ethyl]-2-[({N-[(4-nitrophenyl)carbonyl]glycyl}amino)methyl]-1,3-thiazole-4-carboxamide] gave an IC50 of 50 to 500 nM. CCCCOCCCNC(=O)c1csc(CNC(=O)COc2ccc(OC(F)(F)F)cc2)n1 [Entry 37, N-[3-(butyloxy)propyl]-2-({[({4-[(trifluoromethyl)oxy]phenyl}oxy)acetyl]amino}methyl)-1,3-thiazole-4-carboxamide] gave an IC50 of 50 to 500 nM. In the case of CC(C)(C)c1ccc(OCC(=O)NCc2nc(C(=O)NCCc3cccc(Cl)c3)cs2)cc1 [Entry 67, N-[2-(3-chlorophenyl)ethyl]-2-{[({[4-(1,1-dimethylethyl)phenyl]oxy}acetyl)amino]methyl}-1,3-thiazole-4-carboxamide], the IC50 is reported as 50 to 500 nM. O=C(COc1ccc(OC(F)(F)F)cc1)NCc1nc(C(=O)NCc2cccc(I)c2)cs1 [Entry 157, N-[(3-iodophenyl)methyl]-2-({[({4-[(trifluoromethyl)oxy]phenyl}oxy)acetyl]amino}methyl)-1,3-thiazole-4-carboxamide] was tested, and the IC50 was 50 to 500 nM. In the case of O=C(COc1ccc(OC(F)(F)F)cc1)NCc1nc(C(=O)NC2CCCCCCC2)cs1 [Entry 76, N-cyclooctyl-2-({[({4-[(trifluoromethyl)oxy]phenyl}oxy)acetyl]amino}methyl)-1,3-thiazole-4-carboxamide], the IC50 is reported as 50 to 500 nM. With O=C(COc1ccc(OC(F)(F)F)cc1)NCc1nc(C(=O)NCc2cccc(C(F)(F)F)c2F)cs1 [Entry 158, N-{[2-fluoro-3-(trifluoromethyl)phenyl]methyl}-2-({[({4-[(trifluoromethyl)oxy]phenyl}oxy)acetyl]amino}methyl)-1,3-thiazole-4-carboxamide] the IC50 was 50 to 500 nM. O=C(COc1ccc(OC(F)(F)F)cc1)NCc1nc(C(=O)NCc2ccccc2OC(F)F)cs1 [Entry 34, N-({2-[(difluoromethyl)oxy]phenyl}methyl)-2-({[({4-[(trifluoromethyl)oxy]phenyl}oxy)acetyl]amino}methyl)-1,3-thiazole-4-carboxamide] was tested, and the IC50 was 50 to 500 nM. O=C(COc1ccc(OC(F)(F)F)cc1)NCc1nc(C(=O)NCCc2cccc(Cl)c2)c[nH]1 [Entry 306, N-[2-(3-chlorophenyl)ethyl]-2-({[({4-[(trifluoromethyl)oxy]phenyl}oxy)acetyl]amino}methyl)-1H-imidazole-4-carboxamide] gave an IC50 of over 2000 nM. Cc1ccc(C)c(CCNC(=O)c2csc(CNC(=O)COc3ccc(OC(F)(F)F)cc3)n2)c1 [Entry 33, N-[2-(2,5-dimethylphenyl)ethyl]-2-({[({4-[(trifluoromethyl)oxy]phenyl}oxy)acetyl]amino}methyl)-1,3-thiazole-4-carboxamide] was tested, and the IC50 was 50 to 500 nM. Compound O=C(Cc1ccc2ccccc2c1)NCc1nc(C(=O)NCCc2cccc(Cl)c2)cs1 [Entry 117, N-[2-(3-chlorophenyl)ethyl]-2-{[(naphthalen-2-ylacetyl)amino]methyl}-1,3-thiazole-4-carboxamide] has an IC50 of 50 to 500 nM. O=C(COc1ccc(OC(F)(F)F)cc1)NCc1nc(C(=O)NCc2ccc(Cl)c(Cl)c2)co1 [Entry 291, N-[(3,4-dichlorophenyl)methyl]-2-({[({4-[(trifluoromethyl)oxy]phenyl}oxy)acetyl]amino}methyl)-1,3-oxazole-4-carboxamide] was tested, and the IC50 was 500 to 2000 nM. CC(NC(=O)COc1ccc(OC(F)(F)F)cc1)c1nc(C(=O)NCCc2cccc(Cl)c2)cs1 (stereo not drawn) [Entry 1, N-[2-(3-chlorophenyl)ethyl]-2-(1-{[({4-[(trifluoromethyl)oxy]phenyl}oxy)acetyl]amino}ethyl)-1,3-thiazole-4-carboxamide] showed an IC50 of under 50 nM. O=C(NCCc1cccc(Cl)c1)c1csc(CNC(=O)C2(c3ccc(Cl)cc3)CC2)n1 [Entry 236, 2-[({[1-(4-chlorophenyl)cyclopropyl]carbonyl}amino)methyl]-N-[2-(3-chlorophenyl)ethyl]-1,3-thiazole-4-carboxamide] showed an IC50 of 500 to 2000 nM. Work on C#CC1(NC(=O)c2csc(CNC(=O)COc3ccc(OC(F)(F)F)cc3)n2)CCCCC1 [Entry 180, N-(1-ethynylcyclohexyl)-2-({[({4-[(trifluoromethyl)oxy]phenyl}oxy)acetyl]amino}methyl)-1,3-thiazole-4-carboxamide] yielded an IC50 of 50 to 500 nM. Work on CCc1ccc(NC(=O)NCc2nc(C(=O)NCCc3ccccc3F)cs2)cc1 [Entry 101, 2-[({[(4-ethylphenyl)amino]carbonyl}amino)methyl]-N-[2-(2-fluorophenyl)ethyl]-1,3-thiazole-4-carboxamide] yielded an IC50 of 50 to 500 nM. With CN(C(=O)OC(C)(C)C)C1CCN(C(=O)c2csc(CNC(=O)COc3ccc(OC(F)(F)F)cc3)n2)C1 (stereo not drawn) [Entry 295, 1,1-dimethylethyl methyl(1-{[2-({[({4-[(trifluoromethyl)oxy]phenyl}oxy)acetyl]amino}methyl)-1,3-thiazol-4-yl]carbonyl}pyrrolidin-3-yl)carbamate] the IC50 was 500 to 2000 nM. Work on O=C(C/C=C/c1ccccc1)NCc1nc(C(=O)NCCc2ccccc2F)cs1 [Entry 276, N-[2-(2-fluorophenyl)ethyl]-2-({[(3E)-4-phenylbut-3-enoyl]amino}methyl)-1,3-thiazole-4-carboxamide] yielded an IC50 of 500 to 2000 nM. Work on O=C(COc1ccc(OC(F)(F)F)cc1)NCc1nc(C(=O)O)cs1 [Entry 302, 2-({[({4-[(trifluoromethyl)oxy]phenyl}oxy)acetyl]amino}methyl)-1,3-thiazole-4-carboxylic acid] yielded an IC50 of over 2000 nM. With CC(C)c1ccc(CC(=O)NCc2nc(C(=O)NCCc3ccccc3F)cs2)cc1 [Entry 114, N-[2-(2-fluorophenyl)ethyl]-2-[({[4-(1-methylethyl)phenyl]acetyl}amino)methyl]-1,3-thiazole-4-carboxamide] the IC50 was 50 to 500 nM. O=C(COc1ccc(OC(F)(F)F)cc1)NCc1nc(C(=O)NCc2cc(F)cc(F)c2)cs1 [Entry 126, N-[(3,5-difluorophenyl)methyl]-2-({[({4-[(trifluoromethyl)oxy]phenyl}oxy)acetyl]amino}methyl)-1,3-thiazole-4-carboxamide] was tested, and the IC50 was 50 to 500 nM. CC(CCc1ccccc1)NC(=O)c1csc(CNC(=O)COc2ccc(OC(F)(F)F)cc2)n1 (stereo not drawn) [Entry 152, N-(1-methyl-3-phenylpropyl)-2-({[({4-[(trifluoromethyl)oxy]phenyl}oxy)acetyl]amino}methyl)-1,3-thiazole-4-carboxamide] was tested, and the IC50 was 50 to 500 nM. For COc1cccc(CNC(=O)c2csc(CNC(=O)Cc3ccc4ccccc4c3)n2)c1OC [Entry 256, N-{[2,3-bis(methyloxy)phenyl]methyl}-2-{[(naphthalen-2-ylacetyl)amino]methyl}-1,3-thiazole-4-carboxamide], the IC50 was 500 to 2000 nM. CCOc1cccc(CCNC(=O)c2csc(CNC(=O)COc3ccc(OC(F)(F)F)cc3)n2)c1 [Entry 28, N-{2-[3-(ethyloxy)phenyl]ethyl}-2-({[({4-[(trifluoromethyl)oxy]phenyl}oxy)acetyl]amino}methyl)-1,3-thiazole-4-carboxamide] showed an IC50 of 50 to 500 nM. Compound Cc1cc(Cl)cc(Cl)c1CNC(=O)c1csc(CNC(=O)COc2ccc(OC(F)(F)F)cc2)n1 [Entry 166, N-[(2,4-dichloro-6-methylphenyl)methyl]-2-({[({4-[(trifluoromethyl)oxy]phenyl}oxy)acetyl]amino}methyl)-1,3-thiazole-4-carboxamide] has an IC50 of 50 to 500 nM. O=C(COc1ccc(OC(F)(F)F)cc1)NCc1nc(C(=O)NC2CCCc3ccccc32)cs1 (stereo not drawn) [Entry 199, N-(1,2,3,4-tetrahydronaphthalen-1-yl)-2-({[({4-[(trifluoromethyl)oxy]phenyl}oxy)acetyl]amino}methyl)-1,3-thiazole-4-carboxamide] was tested, and the IC50 was 50 to 500 nM. O=C(COc1ccc(OC(F)(F)F)cc1)NCc1nc(C(=O)NCCc2ccncc2)co1 [Entry 219, N-(2-pyridin-4-ylethyl)-2-({[({4-[(trifluoromethyl)oxy]phenyl}oxy)acetyl]amino}methyl)-1,3-oxazole-4-carboxamide] was tested, and the IC50 was 500 to 2000 nM.
